Assay [1] addresses T1, 5-lipoxygenase (5-LO) (Rattus norvegicus, UniProt P12527).
T1 construct: endogenous in cells; host or cells: intact RBL-1 (rat basophilic leukemia) cells, stimulated with calcium ionophore A23187
T1 sequence (P12527 1-673): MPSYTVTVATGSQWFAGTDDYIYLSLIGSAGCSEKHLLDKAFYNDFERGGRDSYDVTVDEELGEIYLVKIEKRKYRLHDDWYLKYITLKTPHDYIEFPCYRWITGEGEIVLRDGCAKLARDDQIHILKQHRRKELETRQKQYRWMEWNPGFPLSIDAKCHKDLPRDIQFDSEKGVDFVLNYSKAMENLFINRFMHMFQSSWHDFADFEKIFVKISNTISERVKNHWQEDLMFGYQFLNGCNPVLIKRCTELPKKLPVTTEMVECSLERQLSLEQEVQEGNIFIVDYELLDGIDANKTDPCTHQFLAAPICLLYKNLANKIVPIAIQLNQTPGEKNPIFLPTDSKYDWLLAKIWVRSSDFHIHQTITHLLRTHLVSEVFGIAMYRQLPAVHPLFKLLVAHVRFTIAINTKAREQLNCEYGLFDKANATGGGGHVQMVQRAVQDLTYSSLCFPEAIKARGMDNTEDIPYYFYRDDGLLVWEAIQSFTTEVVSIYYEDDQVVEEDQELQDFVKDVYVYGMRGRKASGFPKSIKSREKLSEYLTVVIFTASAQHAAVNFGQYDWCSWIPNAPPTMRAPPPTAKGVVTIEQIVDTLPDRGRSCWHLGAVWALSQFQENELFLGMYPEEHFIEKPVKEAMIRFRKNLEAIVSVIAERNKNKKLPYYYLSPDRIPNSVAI
Nature of the assay: RBL-1 cell 5-lipoxygenase and cyclooxygenase - Whole cells (Procedure II). The class given is cell-based. Particulars: intact RBL-1 cells, 5-HETE; read-out: Procedure II (5-LO) Wh Cell IC50. The procedure: RBL-1 Cell 5-Lipoxygenase and cyclooxygenase - Whole cells
The ability to inhibit 5-LO and CO in intact RBL-1 cells was also evaluated. […] Cells were collected by centrifugation, washed once in HBSS, and resuspended at a concentration of 1×10^5 cells/mL. Cells were incubated in the presence of vehicle or drug then centrifuged at 800×g for 10 minutes at 4° C. The supernatant was removed by aspiration and the cells were resuspended in 0.5 mL of HBSS. […] The conversion of M to 5-LO products was initiated by the addition of 10 μL (50 uCi) of 1-^14 C-AA. Products were isolated by acidification and extraction, followed by thin layer chromatography analysis as described above. Radioactive areas corresponding to authentic 5-LO (5-HETE) and CO (PGD2) products were quantitated by the Bioscan 2000 Imaging System.

Assay [2] deals with T2, Human Prostaglandin H2 Synthase Typ II (Cox-2) (Homo sapiens, UniProt P35354).
T2 construct: endogenous in cells; host or cells: ECV-304 cells treated with PMA and ionomycin for 16 hours
T2 sequence (P35354 18-604): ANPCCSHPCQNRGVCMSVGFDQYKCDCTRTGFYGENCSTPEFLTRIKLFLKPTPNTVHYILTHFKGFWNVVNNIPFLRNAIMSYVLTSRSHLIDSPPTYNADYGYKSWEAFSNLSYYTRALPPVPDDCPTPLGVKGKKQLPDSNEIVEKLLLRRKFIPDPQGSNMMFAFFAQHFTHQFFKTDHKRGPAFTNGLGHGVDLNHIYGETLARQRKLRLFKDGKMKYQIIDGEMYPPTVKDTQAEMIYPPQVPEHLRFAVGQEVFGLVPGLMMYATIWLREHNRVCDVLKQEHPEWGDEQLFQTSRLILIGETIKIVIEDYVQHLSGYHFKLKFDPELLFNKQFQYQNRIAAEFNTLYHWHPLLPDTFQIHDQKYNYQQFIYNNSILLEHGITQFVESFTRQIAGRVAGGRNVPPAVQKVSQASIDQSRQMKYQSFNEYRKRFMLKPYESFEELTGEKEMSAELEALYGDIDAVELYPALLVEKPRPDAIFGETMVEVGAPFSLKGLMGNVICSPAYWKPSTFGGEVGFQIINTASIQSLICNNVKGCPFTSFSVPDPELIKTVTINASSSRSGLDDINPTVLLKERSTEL
Put plainly: Human Prostaglandin H2 Synthase Typ II (Cox-2) Whole Cell Assay, ECV-304 cells (Procedure III). The class given is cell-based. The note with it: @ 10 μM, ECV-304 whole cells; read-out: Procedure III (COX-2) Wh Cell, percent inhibition of PGE2 produced. The procedure: Human Prostaglandin H2 Synthase Typ II (Cox-2) Whole Cell Assay (Multiple Concentrations)
ECV-304 (human, endothelial, umbilical cord) cells are maintained in culture in a suitable medium, and are trypsinized and plated at a density of 1×10^6 cells per well of a 6 well plate prior to assay. Approximately 28 hours later, 50 μg/ml PMA and […] ionomycin (both final concentrations) are added to each well and incubated for an additional 16 hours. Vehicle or test compounds are incubated with the cells for five minutes prior to initiation of Cox-2 enzyme activity by the addition of 30 μM arachidonic acid. Ten minutes later, an aliquot of the supernatant is withdrawn and the amount of PGE2 present quantitated by radioimmunoassay. Activity, reported as percent inhibition of PGE2 produced, is calculated as follows: […]

For assay [3], the target named is T1, 5-lipoxygenase (5-LO). Put plainly: RBL-1 cell 5-lipoxygenase and cyclooxygenase - Homogenate (Procedure I). The note with it: RBL-1 homogenate supernatant, 5-HETE; read-out: Procedure I (5-LO) Homog. IC50. It is filed as biochemical. The procedure:
RBL-1 cell 5-lipoxygenase and cyclooxugenase - Homogenate
Rat basophilic leukemia cells (RBL-1; 5×10^7 viable cells/mL) were disrupted by homogenization on ice (four 20 sec bursts) with a Brinkman polytron. […] The homogenate was then centrifuged at 9,220×g for 48 minutes at 4° C. The pellet was discarded and the supernatant was saved as the source of enzymes. The supernatant was pre-incubated for five minutes at 37° C. in the presence of 2 mM of CaCl2 and compound or vehicle (1% DMSO). The conversion of AA into products by CO and LO was initiated by adding 10 μL (50 μCi) of 1-^14 C-AA to each tube and incubated at 37° C. for 20 minutes. The reaction was stopped by adjusting the pH of each sample to 3 to 3.5 with 2M formic acid. Samples were extracted with three volumes of chloroform to isolate the products of 5-LO formed during the reaction. Fractions were dried under nitrogen, then resuspended in 40 μL of chloroform and spotted onto silica gel HL plates. The plates were developed in A-9 solvent. The dried plates were analyzed using a Bioscan Imaging TLC scanner to determine the percentage of radiolabelled M converted to 5-HETE (LO product) and PGD2 (CO product) in each sample.

As a reminder, the IC50 is the concentration needed to halve the response being measured. One may read the inhibition as the drop in the measured response relative to a control, in per cent. Turning to `CS(=O)(=O)Nc1ccc(-c2ccc(F)cc2)s1` [Example 32, N-5-[(4-fluoro)phenyl-thien-2-yl]methanesulfonamide], the IC50 was found to be 2100 nM in assay [1] and 150 nM in assay [3]. Further, the inhibition at 10 µM in assay [2] stood at 3%.
As to `CS(=O)(=O)Nc1ccc(-c2ccccc2)s1` [Example 33, N-5-[phenyl-thien-2-yl]methanesulfonamide], the IC50 in assay [1] came to 790 nM; in assay [3], 110 nM. Moreover, the inhibition at 10 µM in assay [2] turned out to be 31%.

The values above are taken from patent publication US5783597A, “2,5-disubstituted thiophenes: inhibitors of 5-lipoxygenase and inducible cyclooxygenase (COX-2) enzymes, composition and use” (Ortho Pharmaceutical Corporation, priority 1997, dated 1998).
